In the NIST ThermoML archive (doi:10.1016/j.jct.2013.07.011):
± gives the expanded uncertainty stated by the source.

Conditions: 298.15 K; 101.33 kPa; Liquid; Vibrating tube method

Which mass density does the source give for `CCCC[n+]1ccn(C)c1.O=S(=O)([N-]S(=O)(=O)C(F)(F)F)C(F)(F)F` here?
Its mass density is 1436.35 ± 4 kg/m3.

For `CCCCn1cc[n+](C)c1.COS(=O)(=O)[O-]` [1-butyl-3-methylimidazolium methyl sulfate], which mass density is on record?
The mass density was 1212.59 ± 4 kg/m3.

Which mass density does the source give for `c1ccccc1` [benzene] here?
The mass density was 873.57 ± 0.11 kg/m3.

With `C1CCCCCCC1` [cyclooctane] as the compound, how does the mass density read?
The mass density was 831.47 ± 0.3 kg/m3.

For `CCCCCCCCC` [nonane], which mass density is on record?
The mass density was 713.99 ± 0.32 kg/m3.

Which mass density does the source give for `CCCCCCCC` [octane] here?
Its mass density is 698.6 ± 0.23 kg/m3.

Which mass density does the source give for `Cc1ccccc1` [toluene] here?
The mass density was 862.17 ± 0.11 kg/m3.
